Assay results published in US9254268B2, “Compositions comprising lipophilic active compounds and method for their preparation” (SOLUBEST LTD., priority 2007, dated 2016).
One block for each molecule: values may come before it.

Tests used:
[1] = Particle size of aqueous dispersions by Dynamic Light Scattering; assay type: physicochemical; settings: powder suspended in water
Procedure: (vii) Particle size of the nanodispersions: measurements were performed using Dynamic Light Scattering (DLS). The method was run on the Malvern Zen 3600, Zetasizer-nano series. The samples were prepared by suspending spray-dried powder in water (0.075-0.1%) at 25-30° C. First, water was added to the appropriate amount of the powder and the mixture was left for 15 min. Then, the suspension was magnetically stirred during 4 min at 300 rpm and 1 ml of the suspension was transferred to a cuvette for measurement. The cuvette was incubated inside the instrument during 5 min for stabilization prior measurement. A series of at least 5 repeating measurements was carried out at 25-30° C. Following parameters are reported from the analysis of volume weighed size distribution: polydispersity index (PDI), the diameter of the main fraction (Z-vol), volume % of main fraction.
The powders produced as described in Examples 1-9 have been suspended in deionized water as described in method (vii) of the section Materials and Methods.
In the Dynamic Light Scattering method, we used two main parameters to characterize the colloidal system: the hydrodynamic diameter of the particles and the width of distribution (polydispersity). […]

[2] = Thermal properties by Differential Scanning Calorimetry (DSC); settings: for melting enthalpy (melting energy) / melting temperature (endothermic peak): DSC, after preparation
[3] = Albendazole dissolution in 0.05 M sodium lauryl sulfate; assay type: physicochemical; settings: after 15 min
Procedure: (iv) The dissolution test was performed in accordance with USP Dissolution Method <711> and FDA Dissolution Methods for Drug Products using the paddle apparatus Distek model 2100A. The quantification was performed using UV spectrophotometer. Appropriate amount of spray dried powders or tablets as well as control powders or tablets were dissolved in 1000 ml of 0.05 M water solution of sodium lauryl sulfate, at 37° C., […]

[4] = Dissolution of resveratrol in Model Fasted Duodenal Solution (MFDS); assay type: physicochemical
Procedure: The Model Fasted Duodenal Solution (MFDS) was prepared as follows: a mixture of sodium chloride (3.093 g), sodium hydrophosphate (1.719 g) and sodium taurocholate (0.8065 g) was dissolved in deionized water (300 g) using ultrasonic bath. Lecithin (0.2925 g) was dissolved in 2 ml methylene chloride and added to the buffered solution of sodium taurocholate. The resulting emulsion was stirred for 5 min and then methylene chloride was evaporated under vacuum. The obtained clear micellar solution was adjusted to the volume of 500 ml by deionized water.
For the test procedure, the test resveratrol formulations or raw resveratrol powder (10 mg) were placed into 2 ml microcentrifuge tube and MFDS (1.8 ml) was added to the each tube. The tubes were gently shaken (about 50 rpm) at 37° C. and samplings were taken at 10, 20, 40, 60 and 120 min. For this purpose, the tubes were vortexed at the highest speed for 60 seconds and then centrifuged at 13 000 G for 60 seconds. The solid-free supernatant (0.4 ml) was mixed with 0.4 ml diluent (30% water adjusted to pH 2.5 with phosphoric acid and 70% acetonitrile) and this solution was inserted into an HPLC instrument for determination of resveratrol concentration.

- broad DSC peak, range ([2]; after storage of six months, attributed to beginning of crystallization): 116-183 °C
Compound: CC(C)c1c(C(=O)Nc2ccccc2)c(-c2ccccc2)c(-c2ccc(F)cc2)n1CC[C@@H](O)C[C@@H](O)CC(=O)O [Example 18, Atorvastatin]
- kind of dispersion formed in water (observation) [1]: coarse suspensions with large visible particles

- melting enthalpy (melting energy) [2]: 74.3 J/g
- melting temperature (endothermic peak) [2]: around 82 °C
Compound: CC(C)OC(=O)C(C)(C)Oc1ccc(C(=O)c2ccc(Cl)cc2)cc1 [Fenofibrate starting material, Fenofibrate]

Compound: CCCSc1ccc2nc(NC(=O)OC)[nH]c2c1 [Raw albendazole crystalline powder, Albendazole]
- melting enthalpy (melting energy) [2]: 209.7 J/g
- melting temperature (endothermic peak) [2]: around 215 °C
- albendazole dissolved [3]: 16.6%

- Concentration of resveratrol ([4]; 10 min, MFDS, 37° C.): 76.65 µg/mL
- Concentration of resveratrol ([4]; 20 min): 103.15 µg/mL
- Concentration of resveratrol ([4]; 40 min): 119.3 µg/mL
- Concentration of resveratrol ([4]; 60 min): 121.05 µg/mL
- Concentration of resveratrol ([4]; 120 min): 155.6 µg/mL
Compound: Oc1ccc(C=Cc2cc(O)cc(O)c2)cc1 [Resveratrol raw powder, Resveratrol]
